# Laboratory results as given in patent US7781483B2, “Benzopyran compound” (Nissan Chemical Industries, Ltd., priority 2004, dated 2010).
# Counter-ions that a name gives are not always drawn.
# Tested on: Atrium
# Assay: Effects on the effective refractory period (S1-S2 extrastimulus technique, anesthetized beagles under vagal nerve stimulation)
# Assay type: in vivo
# Settings: 0.3 mg/kg intravenously, determined from 5 min after administration, bilateral vagal nerve stimulation, basic cycle length 300 msec, [after]-[before] drug administration
# Procedure: Beagles were anesthetized with pentobarbital sodium and thoracotomy was done along the median line under a respirator and the incision was made on the pericardium to expose the heart. An electrocardiogram (ECG) was recorded using bipolar electrodes attached to the surface of the right atrial free wall, right atrial auricle, and right ventricular free wall. The vagal nerves were stimulated using an electrostimulation device with Nichrome wires inserted into the vagal nerves in the neck bilaterally. The conditions for electrostimulation to the vagal nerves were set such that the RR intervals on ECG were prolonged by about 100 msec compared with those before the stimulation was started.
# Atrial and ventricular effective refractory periods were determined by S1-S2 extrastimulus technique at basic cycle length of 300 msec during bilateral vagal nerve stimulation, using programmable electric stimulator. A train of 10 basic stimuli (S1) was followed by a premature extrastimulus (S2) at 2 times diastolic threshold.
# For evaluation of drug effects, the atrial and ventricular effective refractory periods were determined before drug administration, then respective compound was administrated intravenously at the dose of 0.3 mg/kg, and the atrial and ventricular effective refractory periods were determined from 5 min after the administration.
# The results were shown as the prolongation time on the atrial and ventricular effective refractory periods, i.e. [effective refractory period after drug administration]−[effective refractory period before drug administration] (msec).
row,Structure (SMILES),Prolongation time on the effective refractory period (msec) Atrium
1,"COc1cc2c(cc1NS(C)(=O)=O)OC(C)(C)[C@H](O)[C@H]2NCCc1ccccc1 (relative stereo) [Synthesis Example 1, N-{(3R*,4S*)-3-Hydroxy-6-methoxy-2,2-dimethyl-4-[(2-phenylethyl)amino]-3,4-dihydro-2H-1-benzopyran-7-yl}methanesulfonamide]",24 ms
2,"Br.CC1(C)Oc2cc(NS(C)(=O)=O)c(O)cc2[C@H](NCCc2ccccc2)[C@H]1O (relative stereo) [Synthesis Example 2, N-{(3R*,4S*)-3,6-Dihydroxy-2,2-dimethyl-4-[(2-phenylethyl)amino]-3,4-dihydro-2H-1-benzopyran-7-yl}methanesulfonamide]",26 ms
3,"COc1cc2c(cc1N(C)S(C)(=O)=O)OC(C)(C)[C@H](O)[C@H]2NCCc1ccccc1 (relative stereo) [Synthesis Example 3, N-{(3R*,4S*)-3-Hydroxy-6-methoxy-2,2-dimethyl-4-[(2-phenylethyl)amino]-3,4-dihydro-2H-1-benzopyran-7-yl}-N-methylmethanesulfonamide]",20 ms
4,"COc1cc2c(cc1NS(C)(=O)=O)OC(C)(C)[C@H](O)[C@H]2NCCC1CCCCC1 (relative stereo) [Synthesis Example 4, N-{(3R*,4S*)-4-[(2-Cyclohexylethyl)amino]-3-hydroxy-6-methoxy-2,2-dimethyl-3,4-dihydro-2H-1-benzopyran-7-yl}methanesulfonamide]",26 ms
5,"CC1(C)Oc2cc(NS(C)(=O)=O)ccc2[C@H](NCCc2ccccc2)[C@H]1O (relative stereo) [Synthesis Example 7, N-{(3R*,4S*)-3-Hydroxy-2,2-dimethyl-4-[(2-phenylethyl)amino]-3,4-dihydro-2H-1-benzopyran-7-yl}methanesulfonamide maleate]",32 ms
6,"CN(c1ccc2c(c1)OC(C)(C)[C@H](O)[C@H]2NCCc1ccccc1)S(C)(=O)=O (relative stereo) [Synthesis Example 12, N-{(3R*,4S*)-3-hydroxy-2,2-dimethyl-4-[(2-phenylethyl)amino]-3,4-dihydro-2H-benzopyran-7-yl}-N-methylmethanesulfonamide hydrochloride]",28 ms
